Laboratory results published in patent US9518015B2, “EP1 receptor ligands” (LABORATORIOS DEL DR. ESTEVE, S.A., priority 2011, dated 2016).

Assays:
human EP1 receptor [1] = molecular target: T1, human EP1 receptor (Homo sapiens, UniProt P34995); assay: Test 2: Measurement of IP1 responses by HTRF, suspended HEK-293 cells stably expressing human EP1 receptors, PGE2 30 nM; type: cell-based; design: expressed in transfected cells; conditions: HEK293, at 10 μM, read-out: Results of Test 2 (Functional assay), % inh
T1 sequence (P34995 1-402): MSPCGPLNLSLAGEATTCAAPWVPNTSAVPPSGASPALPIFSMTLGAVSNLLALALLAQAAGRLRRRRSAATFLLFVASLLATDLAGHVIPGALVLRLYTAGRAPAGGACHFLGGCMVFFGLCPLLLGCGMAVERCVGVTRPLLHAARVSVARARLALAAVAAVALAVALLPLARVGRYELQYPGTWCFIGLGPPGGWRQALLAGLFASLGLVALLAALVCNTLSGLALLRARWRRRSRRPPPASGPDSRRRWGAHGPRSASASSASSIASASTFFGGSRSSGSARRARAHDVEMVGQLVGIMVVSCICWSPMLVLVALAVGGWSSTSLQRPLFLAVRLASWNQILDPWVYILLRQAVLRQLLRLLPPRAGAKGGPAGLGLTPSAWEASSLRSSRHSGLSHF
Protocol: Test 2: Measurement of IP1 responses by Homogeneous Time Resolved Fluorescence
IP1 measurements on HEK-293 cells that stably expressed human EP1 receptors were performed by using a system based on Homogeneous Time Resolved Fluorescense (HTRF) (Gabriel et al., 2003). This technology allows the direct measurement of IP1 in living cells. The principle of this assay is based on competition between IP1 produced by cells and IP1-d2 conjugate for the binding with monoclonal anti-IP1-cryptate conjugate. The HTRF IP1 kit from CisBio was used according to the manufacturer's directions. The experimental procedure was performed as stated below.
Suspended cells (30,000 cells per well) were added to 96-well culture plates in 40 μl of stimulation buffer (supplied by the kit). Compounds were then added in 20 μl of stimulation buffer and incubated at 37° C. for 15 minutes followed by 10 μl of PGE2 to a final concentration of […]. After 90 minutes at 37° C., the reaction was stopped lysing the cells with a mixture of 15 μl of cryptate and 15 μl of IP1-d2 prepared in the lysis buffer supplied by the manufacturer. Plates were incubated for an additional hour at room temperature and read at 665 nm/620 nm using an UltraEvolution Plate reader (Tecan).
Antagonist percentage inhibition was calculated relating compounds activity to the 0% inhibition of the wells incubated with 10 nM PGE2 alone and 100% inhibition of the wells incubated with 10 nM PGE2 plus 1 μM of the reference antagonist.

human EP1 receptor [2] = molecular target: T1, human EP1 receptor; assay: Test 1: Human EP1 receptor radioligand binding assay ([3H]-PGE2, transfected HEK-293 cell membranes); design: expressed in transfected cells; host or cells: HEK-293 cell membranes; conditions: read-out: Results of Test 1 (Binding assay), % inh
Protocol: Test 1: Human EP1 Receptor Radioligand Binding Assay
To investigate binding properties of EP1 receptor ligands to human EP1 receptor, transfected HEK-293 cell membranes and [3H]-PGE2 (Perkin Elmer) were used. In 96-well plates the assay was carried out with a total reaction volume of 250 μl, containing 25 μl of membrane suspension (30 μg protein/well), 25 μl of [3H]-PGE2 (10 nM) in either absence or presence of 25 μl of either buffer or PGE2 (10 μM) for total and non-specific binding, respectively. Binding buffer contained 10 mM MES, 1 mM MgCl2 and 1 mM EDTA at pH 6.0. Plates were incubated at 25° C. for 60 minutes. After the incubation period, 200 μl of incubate were transferred to MultiScreen HTS, FB plates (Millipore), filtered and plates were washed 6 times with ice-cold 10 mM MES, 1 mM MgCl2 and 1 mM EDTA at pH 6.0. Filters were dried and counted in a MicroBeta scintillation counter (Perkin-Elmer) using EcoScint liquid scintillation cocktail.
Percentage inhibition was calculated relating compounds activity to the 0% inhibition of the wells incubated with 10 nM [3H]-PGE2 alone (total binding) and 100% inhibition of the wells incubated with 10 nM [3H]-PGE2 plus 10 μM PGE2 (non-specific binding).

SMILES | inhibition at 10 µM (human EP1 receptor [1]) [%] | inhibition at 10 µM (human EP1 receptor [2]) [%]
O=C(O)c1cccc2c1ccn2Cc1cc(C(F)(F)F)ccc1OCc1ccc(F)cc1F [Example 51, 1-(2-((2,4-difluorobenzyl)oxy)-5-(trifluoromethyl)benzyl)-1H-indole-4-carboxylic acid] | > 75 | 45 to 75
O=C(O)c1cccc2c1ccn2Cc1cc(Cl)ccc1OCc1ccc(C(F)(F)F)cc1C(F)(F)F [Example 14] | > 75 | > 75
O=C(O)c1ncnc2c1ccn2Cc1cc(Cl)ccc1OCc1ccc(F)cc1F [Example 99] | > 75 | > 75
O=C(O)c1cccc2c1ccn2Cc1cc(Br)ccc1OCc1ccc(Br)cc1F [Example 55, 1-(5-bromo-2-((4-bromo-2-fluorobenzyl)oxy)benzyl)-1H-indole-4-carboxylic acid] | > 75 | > 75
O=C(O)c1cccc2c1ccn2Cc1cc(Cl)ccc1OCc1ccc(C(F)(F)F)cc1F [Example 47, 1-(5-chloro-2-((2-fluoro-4-(trifluoromethyl)benzyl)oxy)benzyl)-1H-indole-4-carboxylic acid] | > 75 | > 75
O=C(O)c1cccc2c1ccn2Cc1cc(Br)ccc1OCc1ccc(F)c(Br)c1 [Example 25, 1-(5-bromo-2-((3-bromo-4-fluorobenzyl)oxy)benzyl)-1H-indole-4-carboxylic acid] | > 75 | 45 to 75
O=C(O)c1cccc2c1ccn2Cc1cc(F)ccc1OCc1ccc(F)c(Br)c1 [Example 24, 1-(2-((3-bromo-4-fluorobenzyl)oxy)-5-fluorobenzyl)-1H-indole-4-carboxylic acid] | > 75 | 45 to 75
O=C(O)c1ccc2c(ccn2Cc2cc(Br)ccc2OCc2ccc(F)cc2C(F)(F)F)c1 [Example 69] | > 75 | 45 to 75
O=C(O)c1cccc2c1ccn2Cc1ccccc1OCc1ccc(F)cc1F [Example 54, 1-(2-((2,4-difluorobenzyl)oxy)benzyl)-1H-indole-4-carboxylic acid] | > 75 | 45 to 75
O=C(O)c1cccc2c1ccn2Cc1cc(Cl)ccc1OCc1c(F)c(F)cc(F)c1F [Example 13, 1-(5-chloro-2-((2,3,5,6-tetrafluorobenzyl)oxy)benzyl)-1H-indole-4-carboxylic acid] | > 75 | 45 to 75
O=C(O)c1cccc2c1ccn2Cc1cc(Cl)ccc1OCc1cc(F)ccc1F [Example 29, 1-(5-chloro-2-((2,5-difluorobenzyl)oxy)benzyl)-1H-indole-4-carboxylic acid] | > 75 | > 75
O=C(O)c1ccc2c(ccn2Cc2cc(C(F)(F)F)ccc2OCc2ccc(Br)cc2F)c1 [Example 75, 1-(2-((4-bromo-2-fluorobenzyl)oxy)-5-(trifluoromethyl)benzyl)-1H-indole-5-carboxylic acid] | > 75 | 45 to 75
O=C(O)c1cccc2c1ccn2Cc1cc(Cl)ccc1OCc1ccc(C(F)(F)F)cc1 [Example 11, 1-(5-chloro-2-((4-(trifluoromethyl)benzyl)oxy)benzyl)-1H-indole-4-carboxylic acid] | > 75 | > 75
O=C(O)c1cccc2c1ccn2Cc1cc(Cl)ccc1OCc1ccc(F)c(Br)c1 [Example 17, 1-(2-((3-bromo-4-fluorobenzyl)oxy)-5-chlorobenzyl)-1H-indole-4-carboxylic acid] | > 75 | 45 to 75
O=C(O)c1cccc2c1ccn2Cc1cc(Cl)ccc1OCc1ccc(F)c(F)c1F [Example 21, 1-(5-chloro-2-((2,3,4-trifluorobenzyl)oxy)benzyl)-1H-indole-4-carboxylic acid] | > 75 | 45 to 75
O=C(O)c1cccc2c1ccn2Cc1cc(Cl)ccc1OCc1c(F)cc(Br)cc1F [Example 58, 1-(2-((4-bromo-2,6-difluorobenzyl)oxy)-5-chlorobenzyl)-1H-indole-4-carboxylic acid] | > 75 | –
CC(C)COc1cc(Cl)ccc1Cn1ccc2c(C(=O)O)cccc21 [Example 10, 1-(4-chloro-2-isobutoxybenzyl)-1H-indole-4-carboxylic acid] | 45 to 75 | –
O=C(O)c1cccc2c1ccn2Cc1cc(Cl)ccc1OCc1ccccc1F [Example 45, 1-(5-chloro-2-((2-fluorobenzyl)oxy)benzyl)-1H-indole-4-carboxylic acid] | > 75 | > 75
O=C(O)/C=C/c1cccc2c1ccn2Cc1cc(Br)ccc1OCC1CC1 [Example 80, (E)-3-(1-(5-bromo-2-(cyclopropylmethoxy)benzyl)-1H-indol-4-yl)acrylic acid] | > 75 | –
O=C(O)c1cccc2c1ccn2Cc1cc(F)ccc1OCc1c(F)cccc1F [Example 33, 1-(2-((2,6-difluorobenzyl)oxy)-5-fluorobenzyl)-1H-indole-4-carboxylic acid] | > 75 | 45 to 75
O=C(O)c1ccc2c(ccn2Cc2cc(Cl)ccc2OCc2ccc(F)cc2C(F)(F)F)c1 [Example 67] | 45 to 75 | –
O=C(O)c1ccc2c(ccn2Cc2cc(F)ccc2OCc2ccc(F)c(Br)c2)c1 [Example 68, 1-(2-((3-bromo-4-fluorobenzyl)oxy)-5-fluorobenzyl)-1H-indole-5-carboxylic acid] | > 75 | 45 to 75
O=C(O)c1ccc(F)c2c1ccn2Cc1cc(Cl)ccc1OCc1ccc(F)cc1F [Example 100, sodium 1-(5-chloro-2-((2,4-difluorobenzyl)oxy)benzyl)-7-fluoro-1H-indole-4-carboxylate] | > 75 | –
O=C(O)/C=C/c1cccc2c1ccn2Cc1cc(Cl)ccc1OCc1ccc(F)cc1F [Example 82, (E)-3-(1-(5-chloro-2-((2,4-difluorobenzyl)oxy)benzyl)-1H-indol-4-yl)acrylic acid] | > 75 | –
O=C(O)c1cccc2c1ccn2Cc1cc(F)ccc1OCc1cc(F)ccc1Cl [Example 38, 1-(2-((2-chloro-5-fluorobenzyl)oxy)-5-fluorobenzyl)-1H-indole-4-carboxylic acid] | > 75 | –
O=C(O)c1cccc2c1ccn2Cc1cc(Cl)cc(Cl)c1OCc1ccc(Cl)cc1F [Example 59, 1-(3,5-dichloro-2-((4-chloro-2-fluorobenzyl)oxy)benzyl)-1H-indole-4-carboxylic acid] | 45 to 75 | –
O=C(O)c1ccc2c(ccn2Cc2cc(F)ccc2OCc2cc(F)c(F)cc2Cl)c1 [Example 72, 1-(2-((2-chloro-4,5-difluorobenzyl)oxy)-5-fluorobenzyl)-1H-indole-5-carboxylic acid] | > 75 | –
O=C(O)c1cccc2c1ccn2Cc1cc(C(F)(F)F)ccc1OCc1cc(F)ccc1F [Example 39, 1-(2-((2,5-difluorobenzyl)oxy)-5-(trifluoromethyl)benzyl)-1H-indole-4-carboxylic acid] | > 75 | –
O=C(O)c1ccc2c(ccn2Cc2cc(F)ccc2OCc2ccc(F)cc2Cl)c1 [Example 66, 1-(2-((2-chloro-4-fluorobenzyl)oxy)-5-fluorobenzyl)-1H-indole-5-carboxylic acid] | > 75 | –
